Measured values taken from patent US7927789B1, “Self-referencing biodetection method and patterned bioassays” (SRU Biosystems, Inc., priority 2002, dated 2011).
“Also recorded” adds a separate entry of the source.

Test system: gelatin
Assay: Collagenase cleavage of patterned gelatin on biosensor, BIND imaging
Assay type: biochemical
Conditions: 1.5 mg/ml collagenase; gelatin versus regions without gelatin (rabbit IgG)
Protocol: A pattern of gelatin (1 mg/ml, Sigma) was applied to a biosensor with a micropipette tip in the shape of the letters “SRU.” The gelatin was allowed to incubate on the biosensor surface for about 60 minutes before a thorough rinse with water. Next, the entire biosensor surface was exposed to a 1 mg/ml solution of rabbit IgG (Sigma) that attached a uniform thin layer of protein across the biosensor so that the peak wavelength value of the biosensor would be roughly equivalent in all locations. After a second rinse in water, the entire biosensor was exposed to a 1.5 mg/ml solution of collagenase, a specific binding partner, for about 80 minutes. The collagenase is an enzyme that selectively cleaves gelatin, thus selectively removing protein from the surface only in regions where the gelatin was applied. […] As a consequence of this selective interaction, an image is measured where the word “SRU” appears as a region with lower peak wavelength value compared to surrounding regions, as shown in FIG. 10.

collagenase
peak wavelength value change in gelatin regions after collagenase: peak wavelength value in the gelatin regions is reduced relative to the regions without gelatin; also recorded: peak wavelength value in the gelatin reaction surfaces is reduced relative to the reference surfaces without gelatin
